59 compounds from the METLIN SMRT retention time set (Domingo-Almenara et al. 2019) can be followed below.

The structures appear in SMILES notation.

A short description of the data set: gradient 5% acetonitrile 3 min, to 50% in 2 min, to 85% in 15 min, held 3 min, 100 µL/min. To be noted: column: Zorbax Extend-C18 2.1 x 50 mm; eluents: water / acetonitrile, 0.1% formic acid. An outline of the steps: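 The system's dead and dwell volumes were 40 μL and 900 μL, with a Zorbax Extend-C18 column (2.1 × 50 mm, 1.8 μm) run at 100 μL/min in water and acetonitrile containing 0.1% formic acid each. Pure standards were analyzed in mixtures of ~100 molecules by HPLC–quadrupole time-of-flight mass spectrometry in positive and negative ionization mode. Retention time was assigned from computationally picked, manually inspected adduct peaks.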
`COc1cccc(OC)c1C(=O)Nc1nc(-c2ccc3c(c2)NC(=O)C(C)O3)c(C)s1` (centres undefined) yielded an RP-LC retention time of 866 s. For `Cc1cc(C(=O)N2CC(F)(F)C[C@H]2c2nc(C)no2)on1` the value was 723 s; for `COC(=O)CNC(=O)Nc1cc(F)c2nc(N3CCOCC3)ccc2c1`, 620 s. Under `CC(C)C(=O)NCc1csc(C2CCCN(C(=O)c3cc(F)cc(F)c3)C2)n1` (centres undefined) stands 757 s; under `CC(=O)N1CCc2cc(N3CC(C(=O)N4CCN(C5CCCCC5)CC4)CC3=O)ccc21` (centres undefined), 578 s. Take `COc1cc(NC(=O)CSc2ccc(N3CCOCC3)nn2)cc(OC)c1`: the RP-LC retention time is 682 s. `CC(C)c1noc(C2Cc3ccccc3N2C(=O)Nc2ccc3c(c2)OCCO3)n1` (centres undefined) displayed an RP-LC retention time of 936 s. For `CC(C)Cc1cc(-c2nn3c(-c4ccc(Cl)cc4)nnc3s2)n[nH]1` the value was 1100 s. For `O=C(NC1CCN(Cc2ccccc2)CC1)c1cc2c(=O)n(Cc3ccccc3)ccc2s1` the value was 688 s; for `O=[N+]([O-])c1ccc(-c2nc(NC3CCCCC3)c3ccccc3n2)cc1`, 921 s; for `O=C(NC1CCCCCC1)c1nnc(-c2ccc(S(=O)(=O)N3CCCCC3)cc2)o1`, 1100 s. For `CCc1ccc(-c2ccc(-n3nc(C)c(S(=O)(=O)N4CCOCC4)c3C)nn2)cc1` the value was 1070 s. `COc1ccc(-c2noc(C3CC(=O)N(c4cccc(Cl)c4)C3)n2)cc1OC` (centres undefined) came in with an RP-LC retention time of 934 s. For `O=C(Cc1cc(-c2ccc3c(c2)OCCO3)on1)N1CCN(c2ccccc2F)CC1` the value was 895 s. `O=c1oc2cc(O)c(Cl)cc2c2c1CCC2` showed an RP-LC retention time of 794 s.

`Cc1ccccc1NC(=O)C1CCN(S(=O)(=O)c2ccc3c(c2)sc(=O)n3C(C)C)CC1` gave an RP-LC retention time of 951 s.

Consider `O=C(c1cc(-c2ccccc2)n[nH]1)N1CC(c2nc(C3CC3)no2)C1`, for which the RP-LC retention time is 711 s.

Turning to `Cc1ccc(C(=O)N2CCC3(CC2)N=C(c2ccc(Cl)cc2)NO3)cc1`, the RP-LC retention time amounted to 895 s. Under `Cc1ccccc1Nc1c(-c2ccc(O)cc2)nc2c(C)cccn12` stands 651 s; under `CCN(CC)c1ccc(-c2nc3ncccn3c2NCc2ccccc2)cc1`, 712 s. Under `COCCn1ccc2nc(C)c(C(=O)NCc3ccc4c(c3)OCO4)cc2c1=O` stands 664 s.

The compound `CC(=O)Nc1ccc(C(=O)N2CC(C)CC(C)C2)o1` (centres undefined) showed an RP-LC retention time of 739 s. As for `Cc1ccccc1NS(=O)(=O)c1ccc2c(c1)CCCC(=O)N2`, the RP-LC retention time was found to be 725 s. For `CCC1CCCCN1CCCNC(=O)c1c(N2CCCC2=O)c2cc(OC)ccc2n1C` (centres undefined) the value was 638 s. For `CCN(CC)CCNC(=O)C(C)n1c(=O)c(C(F)(F)F)nc2ccccc21` (centres undefined) the value was 669 s; for `CCOc1ccccc1NC(=O)C1CCN(S(=O)(=O)c2cn(C(C)C)cn2)CC1`, 846 s; for `O=C(NCc1cccc(Br)c1)C1CCCN(C(=O)C2Sc3ccccc3NC2=O)C1` (centres undefined), 800 s.

For `CC(C)(C)NC(=O)N1CCOc2ccccc21`, the RP-LC retention time came to 892 s. For `CCCS(=O)(=O)N1CCC2(CC1)CC(OCc1ccccc1)CCO2` (centres undefined) the value was 984 s; for `Cc1cccc(-c2noc(C3CC(=O)N(c4ccc5c(c4)OCCO5)C3)n2)c1` (centres undefined), 980 s. For `COc1ccc(C2C(C(=O)NCc3ccccn3)c3cc(OC)c(OC)cc3C(=O)N2C)cc1OC` (centres undefined) the value was 595 s. For `CC(NC(=O)c1cnn2c(-c3ccc4c(c3)OCO4)ccnc12)c1ccc(F)cc1` (centres undefined) the value was 1000 s; for `Cn1nc(-c2nnc(-c3ccc(F)cc3)o2)c2c1CCN(S(=O)(=O)c1ccc(C#N)cc1)C2`, 894 s.

`Cc1ccccc1Cc1noc(-c2nc(-c3ccc4c(c3)OCO4)no2)n1` registered an RP-LC retention time of 1190 s. Under `O=C(CCc1ccccc1)N1CCN(C(=O)c2nnn3c2COC(c2ccccc2)C3)CC1` (centres undefined) stands 891 s; under `COc1cccc(NC(=O)Cc2csc3nc(-c4ccccc4)cn23)c1`, 791 s; under `CC(C)CCNC(=O)C1(C)Cn2nc(C(=O)N3CCN(C4CCCCC4)CC3)cc2C(=O)N1C` (centres undefined), 620 s. Under `CCOc1nc2ccccc2nc1N1CCCC(C(=O)Nc2ccccc2F)C1` (centres undefined) stands 1200 s; under `O=C(c1cc[nH]c(=O)c1)N1C[C@@H](COCC2CC2)[C@H](c2ccncc2)C1`, 555 s. For `Cc1ccsc1CN1CC(Oc2ccc(-c3noc(-c4ccncc4)n3)cc2)C1` the value was 715 s.

`Cc1cccc(CNC(=O)c2nc3cccnc3n(CC(C)C)c2=O)c1` yielded an RP-LC retention time of 580 s.

The compound `Cc1cccc(-c2nnc(-c3cc(S(=O)(=O)N4CCOCC4)ccc3Cl)o2)c1` came in with an RP-LC retention time of 992 s. For `Cc1noc(C2CN(C(=O)c3n[nH]c4ccccc34)CC23CCOCC3)n1` (centres undefined) the value was 665 s; for `O=S(=O)(Cc1ccccc1)N1CCC(Oc2nc3ccccc3s2)CC1`, 1060 s; for `COCCn1cc(CC(=O)NC(C)C)c2cccnc21`, 601 s. For `O=C(NC1CC1)C1(CCO)CCN(Cc2ccccc2)C1` (centres undefined) the value was 564 s. For `O=C(NCc1ccc2c(c1)OCO2)C1CCCN(c2cnc3nccnc3c2)C1` (centres undefined) the value was 666 s; for `CN(C)c1ncccc1C(=O)Nc1ccc(F)cc1`, 610 s. On to `CCn1cnc2ccc(-c3noc(COc4ccc(OC)cc4)n3)cc21`, for which the RP-LC retention time amounted to 743 s.

As to `COc1ccc(-c2csc(Nc3ncccn3)n2)cc1OC`, the RP-LC retention time stood at 824 s. For `CN1CCN(c2ccc(CNC(=O)C3CCc4sc(C(=O)N(C)C)cc4C3)cc2)CC1` (centres undefined) the value was 576 s; for `CCc1ccc(NC(=O)N2CCCC(C)(C(=O)NCc3ccccc3C)C2)cc1` (centres undefined), 1040 s; for `Cc1nc(-c2cccc(N3CC(C(=O)N4CCCc5ccccc54)CC3=O)c2)no1` (centres undefined), 783 s. Under `O=C(NC1CCCCC1)c1nnc(-c2ccc(S(=O)(=O)N3CCCC3)cc2)o1` stands 952 s. Under `CCN1c2ccc(C)cc2C(=O)NC12CCN(C(=O)c1ccc(F)c(Cl)c1)CC2` stands 888 s; under `CCN1C(=O)C(C)(C(=O)Nc2cccc(Cl)c2)Oc2cccnc21` (centres undefined), 982 s; under `Cc1ccc(S(=O)(=O)N2C[C@@H](F)C[C@H]2C(=O)N2CCc3ccccc3C2)cc1Cl`, 1020 s. The compound `CCc1ccc(CNC(=O)C2CCc3nc(N4CCOCC4)ncc3C2)cc1` (centres undefined) yielded an RP-LC retention time of 802 s.

The compound `COc1cc(Cn2c(N)c(C#N)c3nc4ccccc4nc32)cc(OC)c1OC` registered an RP-LC retention time of 720 s.
